Experimental findings from patent US10502741B2, “Means and methods for detecting activated MALT1” (Helmholtz Zentrum München Deutsches Forschungszentrum für …, priority 2014, dated 2019) are described below.

The target of test [1] is T1, active MALT1 (Homo sapiens, UniProt Q9UDY8).
T1 construct: endogenous in cells; host or cells: Jurkat T cells, primary human PBMCs and T cells, DLBCL cell lines (HBL1, TMD8, OCI-Ly3, OCI-Ly10, U2932, RIVA, BJAB, Su-DHL-4, Su-DHL-6)
T1 sequence (Q9UDY8 1-824): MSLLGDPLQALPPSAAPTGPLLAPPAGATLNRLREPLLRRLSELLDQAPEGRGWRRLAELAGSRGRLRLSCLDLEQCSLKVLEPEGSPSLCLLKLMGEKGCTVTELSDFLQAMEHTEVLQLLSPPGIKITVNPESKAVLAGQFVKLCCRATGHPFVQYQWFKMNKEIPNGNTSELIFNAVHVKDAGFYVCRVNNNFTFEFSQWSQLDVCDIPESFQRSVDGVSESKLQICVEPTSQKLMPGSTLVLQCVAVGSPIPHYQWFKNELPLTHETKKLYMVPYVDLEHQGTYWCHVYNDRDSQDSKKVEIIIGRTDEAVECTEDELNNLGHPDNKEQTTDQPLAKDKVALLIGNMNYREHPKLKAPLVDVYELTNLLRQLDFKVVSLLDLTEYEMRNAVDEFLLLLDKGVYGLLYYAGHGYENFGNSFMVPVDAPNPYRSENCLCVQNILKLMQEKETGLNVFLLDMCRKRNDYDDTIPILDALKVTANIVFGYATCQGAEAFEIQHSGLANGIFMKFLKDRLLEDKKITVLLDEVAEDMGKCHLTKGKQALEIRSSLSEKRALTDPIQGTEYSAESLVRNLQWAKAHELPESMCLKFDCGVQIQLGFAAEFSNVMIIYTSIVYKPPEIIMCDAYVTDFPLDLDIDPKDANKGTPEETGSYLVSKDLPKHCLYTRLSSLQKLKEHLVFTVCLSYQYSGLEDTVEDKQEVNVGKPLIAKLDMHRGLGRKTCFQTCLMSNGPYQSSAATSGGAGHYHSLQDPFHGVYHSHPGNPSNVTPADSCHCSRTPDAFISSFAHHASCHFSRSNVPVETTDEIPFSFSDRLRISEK
As to the kind of experiment: Probe 7-pulldown with streptavidin beads and western blot. It is filed as cell-based. The protocol:
(§1) Jurkat T cells were cultured in standard RPMI medium containing 10% FCS, 100 U/ml Penicillin/Streptomycin and 2 mM Glutamin. DNA transfection of 6 μg DNA in 8×10^6 Jurkat T cells was performed by electroporation in a GenePulser Xcell (BioRad) with a 220 Volt pulse. For siRNA experiments, Jurkat T cells were transfected with 100 nM siRNA and Atufect transfection reagent (Silence Therapeutics, Berlin). Jurkat T cells were stimulated either with 200 ng/ml PMA (phorbol 12-myristate 13-acetate) and 300 ng/ml Ionomycin (both Calbiochem) or CD3/CD28 antibody co-ligation (human CD3: 1 μg/ml; human CD28: 4 μg/ml; mouse IgG1: 2 μg/ml; mouse IgG2a: 2 μg/ml; BD Biosciences). DLBCL cell lines (HBL1, TMD8, OCI-Ly3, U2932, RIVA, BJAB, Su-DHL-4 and Su-DHL-6) were cultured in standard RPMI medium containing 20% FCS, 100 U/ml Penicillin/Streptomycin and 2 mM Glutamin. OCI-Ly10 cell line was cultured in IMDM containing 20% human serum, 100 U/ml Penicillin/Streptomycin, 2 U/ml heparine, 50 μM β-mercaptoethanol. Inhibitors 10 μM (z-VRPR-FMK, Mepazine, Thioridazine, CA-074Me) were added to the cells in media for 1 h, prior to stimulation and labeling with diagnostic MALT1 inhibitor.
Untreated DLBCL (1-2×10^7) or Jurkat T cells (stimulated with PMA/Ionomycin or CD3/28 or left untreated; 1-2×10^7), were lysed in 500 μl co-IP buffer without protease inhibitors, centrifuged, incubated with probe 7 (concentration as depicted) for 1 h at RT then incubated with streptavidin beads for 2 h at 4° C. Precipitate was washed, analysed by SDS-PAGE and western blot.
(A western blot detects proteins with antibodies after separation by electrophoresis.)

Test [2] has as its target T2, cathepsin B (Homo sapiens, UniProt P07858). As to the kind of experiment: Labeling with diagnostic inhibitor in cell extracts (gel-based, fluorescence scan): about 30 kDa cathepsin B band. Details: endogenous in cells; host or cells: Jurkat T cells; HBL1 and other DLBCL cell lines. The following applies: for effect of inhibitor pretreatment on the band below 34 kDa (cathepsin B) labeled by probe 5: Jurkat T cells, 10 μM inhibitor. As for the experimental part: as §1
(§2) Jurkat T cells (1-2×10^7), primary human PBMCs or primary human T cells (0.25 or 1×10^7) were lysed in 150 μl co-IP buffer without protease inhibitors. DLBCL (3×10^7) were lysed in 250 μl buffer. After centrifugation (14000 rpm, 10 min, 4° C.), 100 μl extract (DLBCL: 200 μl) was stained with probe 5 or probe 6 (3 μM end) for 50 min at 29° C., mixed with 4× loading dye and boiled.

Test [3] addresses T2, cathepsin B. In words: Cathepsin B cleavage assay (zRR-AMC substrate). Format: biochemical. Details: purchased BioVision. As to conditions: 0.2 ng cathepsin B, 1 mM zRR-AMC, 2 h at 30° C. As for the experimental part: (§3) C) Impact of indicated compounds on MALT1, Caspase8 and cathepsin B was tested in in vitro cleavage assays using fluorescent substrates. Results and SD from three independent experiments are shown.
0.2 ng cathepsin B together with probe 5, z-VRPR-FMK (SEQ ID No. 6), mepazine or CA-074 was incubated with 1 mM zRR-AMC substrate for 2 h at 30° C. Assay was performed in 0.1 M sodium acetate pH 5.5, 10 mM DTT and 0.1 mM EDTA. Again, increase of AMC fluorescence is measured in a Synergy 2 Microplate Reader (Biotek).

Test [4] addresses T1, active MALT1. In words: Labeling with diagnostic inhibitor in cell extracts (gel-based, fluorescence scan): active MALT1 band. The following applies: for effect of inhibitor pretreatment on probe 5 labeling of active MALT1: Jurkat T cells, 10 μM inhibitor before stimulation; for selectivity / background of probe labeling in extracts: Jurkat T cell extracts; for detection of endogenous active MALT1-probe complexes: Jurkat T cells stimulated or not, whole cell lysates. The protocol:
as §1, §2

Test [5] deals with T1, active MALT1. As to the kind of experiment: ELISA-based assay (MALT1 ELASA) on streptavidin-coated plates with MALT1 antibody detection. Format: cell-based. The following applies: for effect of inhibitor on active MALT1 signal in DLBCL cells: inhibitor-treated (10 μM) DLBCL cells. As for the experimental part: as §1
Untreated DLBCL (1×10^7), primary T cells (0.25×10^7) or Jurkat T cells (0.2-1×10^7) (stimulated or not) were lysed in 300 μl co-IP buffer without protease inhibitors, centrifuged, incubated with probe 7 (concentration as depicted) for 1 h at RT, then transferred to streptavidin-coated plates (96 well, clear) and incubated o/n at 4° C. After blocking with 2% BSA in PBS-T, detection was performed by incubation with MALT1 primary antibody (1 h, RT) and HRP-coupled secondary antibody (1 h, RT). […] was determined after TMB substrate incubation in a photometer (Bio-Tek).
Background: An ELISA detects its analyte on a solid surface through an enzyme-linked reagent.

The target in another test is T3, MALT1 (Homo sapiens, UniProt Q9UDY8).
T3 construct: GST
T3 sequence (Q9UDY8 1-824): T1 sequence (Q9UDY8 1-824)
As to the kind of experiment: MALT1 in vitro cleavage assay using fluorescent substrate. It is filed as biochemical. The protocol: as §3
Preferably, MALT1 activity is determined in a MALT1 cleavage assay. […] The assay may be performed in cleavage buffer comprising for example 50 mM MES, 1 M sodium citrate pH 7, 150 mM NaCl, 10% sucrose, 0.1% chaps, 10 mM DTT. Catalytically active MALT1 cleaves the substrate and an increase of AMC fluorescence can be measured.

Setting [6] is: HBL1 cells, inhibitors 10 μM each.

Primed or numbered codes have the meaning given here. The star is where a group is joined. FITC = O=C1OC2(c3ccc(O)cc3Oc3cc(O)ccc32)c2ccc(NC(=S)*)cc21; AOMK = acyloxymethyl ketone C-terminal warhead; AOMK″ = acyloxymethyl ketone; BODIPY = not defined here

Consider `CN1CCCC(CN2c3ccccc3Sc3ccccc32)C1` (centres unmarked) [mepazine, 10-[(1-methylpiperidin-3-yl)methyl]-10H-phenothiazine], for which the “effect of inhibitor on formation of MALT1-probe 7 complexes” value at active MALT1 [1] (Jurkat T cells pretreated with 10 μM inhibitors, 0.1 μM probe 7) is listed as “blocked”. The “effect of inhibitor pretreatment on the band below 34 kDa (cathepsin B) labeled by probe 5” value (from here on “effect of inhibitor pretreatment … by probe 5”) at cathepsin B [2] is “unaffected”. Also, at cathepsin B [3], the “inhibition of cathepsin B activity in vitro” value was “neither the non-competitive MALT1 inhibitor mepazine, nor the irreversible cathepsin B specific inhibitor CA-074 showed any cross-inhibition”. Further, the “effect of inhibitor on probe 6 labeling of active MALT1” value at active MALT1 [4] (setting [6]) is on record as “sensitivity”. In addition, the “effect of inhibitor pretreatment on probe 5 labeling of active MALT1” value at active MALT1 [4] is recorded as “prevents binding of diagnostic MALT1-inhibitor”. At active MALT1 [5] (probe 7), the “effect of inhibitor on active MALT1 signal in DLBCL cells” value is recorded as “strongly reduced”.
As to “BODIPY-ALVSR-AOMK ({BODIPY}-ALVSR-{AOMK″}; reading uncertain)”, in the test with active MALT1 [4], the “selectivity / background of probe labeling in extracts” value is on record as “unspecific background labeling of unknown identity at approx. 40 kDa” and the “detection of endogenous active MALT1-probe complexes” value was “exclusively detected after stimulation”. Also, the “effect of titrating probe concentration on labeling” value with active MALT1 [4] (extracts of stimulated Jurkat T cells) is “decrease background labeling, while active MALT1 activity stays stable”.
In the case of `CN1CCC[C@H](CN2c3ccccc3Sc3ccccc32)C1` [S-mepazine, 10-{[(3S)-1-methylpiperidin-3-yl]methyl}-10H-phenothiazine], on active MALT1 [5] (ABC DLBCL cell line OCI-Ly3, increasing concentrations), the “cellular MALT1 inhibition, inhibitor profiling” value is recorded as “slightly more potent”. Also, the “concentrations at which MALT1 was inhibited” value at active MALT1 [5] (all ABC DLBCL cell lines) is 0.3 to 10 µM.
As to “FITC-LRSR-AOMK ({FITC}-LRSR-{AOMK}) [probe 5]”, the “inhibition of MALT1 protease activity in vitro” value with MALT1 was “inhibit MALT1”. Besides, the “inhibition of cathepsin B activity in vitro” value in the test with cathepsin B [3] was “abrogated cathepsin B activity even though slightly less efficient”. Moreover, in the test with active MALT1 [4] (ABC DLBCL cells (HBL1 for probe 6)), the “active MALT1 signal in lymphoma whole cell extracts” value is recorded as “not detectable”. Moreover, in the test with active MALT1 [4], the “selectivity / background of probe labeling in extracts” value is “MALT1 was the only inducible band” and the “detection of endogenous active MALT1-probe complexes” value was “exclusively detected after T cell stimulation”. Besides, the “detection of active MALT1 in primary cells” value with active MALT1 [4] (extracts of P/I-stimulated PBMCs and human T cells) is recorded as “detected active MALT1”.
In the case of `CCCNC(=O)[C@H]1O[C@@H]1C(=O)N[C@H](C(=O)N1CCC[C@H]1C(=O)O)[C@@H](C)CC` [CA-074], at MALT1, the “inhibition of MALT1 protease activity in vitro” value is reported as “neither the non-competitive MALT1 inhibitor mepazine, nor the irreversible cathepsin B specific inhibitor CA-074 showed any cross-inhibition”.
As for `CCCNC(=O)[C@H]1O[C@@H]1C(=O)N[C@H](C(=O)N1CCC[C@H]1C(=O)OC)[C@@H](C)CC` [CA-074Me], the “effect of inhibitor on the about 30 kDa cathepsin B signal labeled by probe 6” value at cathepsin B [2] (setting [6]) is “sensitive”. The “effect of inhibitor pretreatment … by probe 5” value at cathepsin B [2] was “completely abolished detection”. The “effect of inhibitor pretreatment on probe 5 labeling of active MALT1” value at active MALT1 [4] was “inducible MALT1 labeling was unaffected”. Besides, on active MALT1 [5] (probe 7), the “effect of inhibitor on active MALT1 signal in DLBCL cells” value is “resistant”.
Take `CSc1ccc2c(c1)N(CCC1CCCCN1C)c1ccccc1S2` (centres unmarked) [thioridazine, 10-[2-(1-methylpiperidin-2-yl)ethyl]-2-(methylthio)phenothiazine]: on cathepsin B [2], the “effect of inhibitor pretreatment … by probe 5” value is on record as “unaffected”. Besides, the “effect of inhibitor pretreatment on probe 5 labeling of active MALT1” value at active MALT1 [4] is given as “prevents binding of diagnostic MALT1-inhibitor”.
Regarding Ac-Lys(biotin)-LRSR-AOMK [probe 7], the “detection of MALT1-probe 7 complexes after pulldown” value at active MALT1 [1] (Jurkat T cells, P/I stimulated or not) is “exclusively detected in extracts of P/I stimulated Jurkat T cells”. In addition, the “probe concentration sufficient to completely remove active MALT1 from the extracts” value on active MALT1 [1] (extracts of stimulated T cells, supernatant checked with probe 6) was 100 nM. Further, the “constitutively active MALT1 after pulldown in DLBCL cells” value at active MALT1 [1] (untreated ABC and GCB DLBCL cells, western blot) was “exclusively in ABC, but not in GCB DLBCL cells”. Further, the “probe concentration sufficient to obtain a robust increase in active MALT1” value on active MALT1 [5] (2×10^6 Jurkat T cells stimulated or not) was ≤ 10 nM. In addition, at active MALT1 [5] (DLBCL cell lines, probe 7), the “MALT1 activity in ABC versus GCB DLBCL cells, ELISA” value was “significant increase in MALT1 activity in ABC DLBCL cells when compared to GCB DLBCL cells”. Besides, the “MALT1 binding to streptavidin-coated plates” value at active MALT1 [5] (Jurkat T cells, stimulated or not) is recorded as “only detected in P/I or CD3/CD28 stimulated Jurkat T cells”. The “active MALT1 in stimulated primary T cells, ELISA” value on active MALT1 [5] (primary human T cells, 0.1 μM probe 7) is given as “robust induction of active MALT1”.
`C=CC(=O)N1CCC[C@@H](n2nc(-c3ccc(Oc4ccccc4)cc3)c3c(N)ncnc32)C1` [Ibrutinib]: at active MALT1 [5] (0.5 nM, ABC DLBCL cells), the “reduction of MALT1 activity” value is listed as 50-60%.
